Assays:
Glycine receptor = Glycine receptor (Rattus norvegicus, UniProt P22771+P24524+P07727+P20781); type: cell membranes, Wistar, Spinal cord, Membrane; also: in other assays of this panel Not Active means under 50% inhibition at 10 µM
[1] = DRUGMATRIX: Atrial Natriuretic Factor (ANF) radioligand binding (ligand: [125I] ANF (rat)); type: cell membranes, Cavia porcellus, Dunkin-Hartley, Adrenal gland, Membrane; settings: Not Active = under 50% inhibition at 10 µM
[2] = molecular target: T1, Alpha-2A adrenergic receptor (Homo sapiens, UniProt P08913); type: cell membranes, Sf9, Membrane; settings: for Ki: read-out: Ki; as to all read-outs here: in other assays of this panel Not Active means under 50% inhibition at 10 µM
T1 sequence (P08913 whole entry): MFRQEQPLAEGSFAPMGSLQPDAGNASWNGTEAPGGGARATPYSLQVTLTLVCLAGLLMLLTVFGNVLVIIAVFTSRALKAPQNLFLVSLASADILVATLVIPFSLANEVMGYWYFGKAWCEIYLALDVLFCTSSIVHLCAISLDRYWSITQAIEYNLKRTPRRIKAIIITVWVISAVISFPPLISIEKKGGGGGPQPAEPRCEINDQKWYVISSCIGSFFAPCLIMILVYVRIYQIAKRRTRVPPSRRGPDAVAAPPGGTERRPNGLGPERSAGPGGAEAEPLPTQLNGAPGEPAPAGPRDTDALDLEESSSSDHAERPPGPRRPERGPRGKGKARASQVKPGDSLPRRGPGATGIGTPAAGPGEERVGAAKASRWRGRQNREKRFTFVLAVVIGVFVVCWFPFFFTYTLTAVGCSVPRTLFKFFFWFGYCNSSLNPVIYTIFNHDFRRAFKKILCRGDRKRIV

Cytochrome P450 2A6 = molecular target: T2, Cytochrome P450 2A6 (Homo sapiens, UniProt P11509); settings: bti-tn-5b1-4; also: in other assays of this panel Not Active means under 50% inhibition at 10 µM
T2 sequence (P11509 whole entry): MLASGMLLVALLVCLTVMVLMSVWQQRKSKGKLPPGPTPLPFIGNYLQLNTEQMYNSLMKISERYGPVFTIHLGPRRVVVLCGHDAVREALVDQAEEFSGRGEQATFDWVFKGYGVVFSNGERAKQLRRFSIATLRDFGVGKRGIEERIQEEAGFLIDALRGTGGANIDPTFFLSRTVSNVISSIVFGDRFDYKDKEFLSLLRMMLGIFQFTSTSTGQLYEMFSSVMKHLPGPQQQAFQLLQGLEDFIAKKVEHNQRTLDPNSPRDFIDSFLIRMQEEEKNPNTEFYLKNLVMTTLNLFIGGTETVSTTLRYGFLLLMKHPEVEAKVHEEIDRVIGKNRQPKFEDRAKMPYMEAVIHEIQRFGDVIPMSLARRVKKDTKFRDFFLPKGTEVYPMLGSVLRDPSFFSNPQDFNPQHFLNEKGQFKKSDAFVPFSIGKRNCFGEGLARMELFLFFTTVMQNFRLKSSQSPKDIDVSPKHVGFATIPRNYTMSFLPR

[3] = molecular target: Beta-1 adrenergic receptor (Homo sapiens, UniProt P08588); experiment: DRUGMATRIX: Adrenergic beta1 radioligand binding (ligand: [125I] Cyanopindolol); type: cell membranes, CHO-K1, Membrane; settings: cho-k1; Not Active = under 50% inhibition at 10 µM
Chain of Beta-1 adrenergic receptor (P08588 whole entry): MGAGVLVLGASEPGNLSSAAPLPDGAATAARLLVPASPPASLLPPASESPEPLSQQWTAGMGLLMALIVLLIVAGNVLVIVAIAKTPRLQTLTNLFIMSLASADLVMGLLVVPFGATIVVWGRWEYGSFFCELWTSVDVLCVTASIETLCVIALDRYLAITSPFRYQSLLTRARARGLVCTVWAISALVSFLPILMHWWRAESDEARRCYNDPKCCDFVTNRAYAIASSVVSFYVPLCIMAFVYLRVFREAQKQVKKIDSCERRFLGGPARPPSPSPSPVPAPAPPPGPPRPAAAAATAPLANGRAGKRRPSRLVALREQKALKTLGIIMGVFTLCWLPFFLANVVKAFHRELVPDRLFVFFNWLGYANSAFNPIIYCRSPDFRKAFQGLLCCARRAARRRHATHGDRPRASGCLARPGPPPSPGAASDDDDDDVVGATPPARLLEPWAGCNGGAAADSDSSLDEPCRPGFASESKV

[4] = DRUGMATRIX: Imidazoline I2, Central radioligand binding (ligand: [3H] Idazoxan); type: cell membranes, Rattus norvegicus, Wistar, Cerebral cortex, Membrane; settings: Not Active = under 50% inhibition at 10 µM

Structure (SMILES)	IC50 (Glycine receptor)	IC50 [1]	Ki [1]	IC50 ([2]; sf9)	IC50 (Cytochrome P450 2A6)	Ki (Cytochrome P450 2A6)	IC50 [3]	IC50 [4]	Ki [4]	IC50 ([2]; read-out: IC50) [nM]	Ki [2] [nM]	IC50 ([4]; read-out: IC50) [nM]	Ki ([4]; read-out: Ki) [nM]
CCC1=C(C)CN(C(=O)NCCc2ccc(S(=O)(=O)NC(=O)N[C@H]3CC[C@H](C)CC3)cc2)C1=O [GLIMEPIRIDE]	Not Active	Not Active	Not Active	Not Active	Not Active	Not Active	Not Active	Not Active	Not Active				
Nc1cc(-c2ccncc2)c[nH]c1=O [INAMRINONE]	Not Active	Not Active	Not Active	Not Active	Not Active	Not Active	Not Active	Not Active	Not Active				
CCCCC1=NC2(CCCC2)C(=O)N1Cc1ccc(-c2ccccc2-c2nnn[nH]2)cc1 [IRBESARTAN]	Not Active	Not Active	Not Active	Not Active	Not Active	Not Active	Not Active	Not Active	Not Active				
C[N+](C)(C)C[C@H](O)CC(=O)[O-] [LEVOCARNITINE]	Not Active	Not Active	Not Active	Not Active	Not Active	Not Active	Not Active	Not Active	Not Active				
C[C@H]1COc2c(N3CCN(C)CC3)c(F)cc3c(=O)c(C(=O)O)cn1c23.C[C@H]1COc2c(N3CCN(C)CC3)c(F)cc3c(=O)c(C(=O)O)cn1c23.O [LEVOFLOXACIN]	Not Active	Not Active	Not Active	Not Active	Not Active	Not Active	Not Active	Not Active	Not Active				
CCn1cc(C(=O)O)c(=O)c2cc(F)c(N3CCNC(C)C3)c(F)c21 (configuration not stated) [LOMEFLOXACIN]	Not Active	Not Active	Not Active	Not Active	Not Active	Not Active	Not Active	Not Active	Not Active				
CN1CCCC(CN2c3ccccc3Sc3ccccc32)C1 (configuration not stated) [MEPAZINE]	Not Active	Not Active	Not Active		Not Active	Not Active	Not Active	Not Active	Not Active	1460	546		
Cc1cccc(C)c1NC(=O)C1CCCCN1C (configuration not stated) [MEPIVACAINE]	Not Active	Not Active	Not Active	Not Active	Not Active	Not Active	Not Active	Not Active	Not Active				
CN(C)C(=N)NC(=N)N [METFORMIN]	Not Active	Not Active	Not Active	Not Active	Not Active	Not Active	Not Active	Not Active	Not Active				
CC(C)(C)NCC(O)COc1cccc2c1CC(O)C(O)C2 (configuration not stated) [NADOLOL]	Not Active	Not Active	Not Active	Not Active	Not Active	Not Active	Not Active	Not Active	Not Active				
C[C@]12CC[C@H]3[C@@H](CCC4=CC(=O)CC[C@@H]43)[C@@H]1CC[C@@H]2O [NANDROLONE]	Not Active	Not Active	Not Active	Not Active	Not Active	Not Active	Not Active	Not Active	Not Active				
CN(C)C(=O)Oc1cccc([N+](C)(C)C)c1.[Br-] [NEOSTIGMINE BROMIDE]	Not Active	Not Active	Not Active	Not Active	Not Active	Not Active	Not Active	Not Active	Not Active				
NC(=O)c1cccnc1 [NIACINAMIDE]	Not Active	Not Active	Not Active	Not Active	Not Active	Not Active	Not Active	Not Active	Not Active				
CS(=O)(=O)Nc1ccc([N+](=O)[O-])cc1Oc1ccccc1 [NIMESULIDE]	Not Active	Not Active	Not Active	Not Active	Not Active	Not Active	Not Active	Not Active	Not Active				
CN1C(=O)CN=C(c2ccccc2)c2cc([N+](=O)[O-])ccc21 [NIMETAZEPAM]	Not Active	Not Active	Not Active	Not Active	Not Active	Not Active	Not Active	Not Active	Not Active				
COc1ccc2c(c1OC)C(=O)O[C@@H]2[C@H]1c2c(cc3c(c2OC)OCO3)CCN1C [NOSCAPINE]	Not Active	Not Active	Not Active	Not Active	Not Active	Not Active	Not Active	Not Active	Not Active				
C[C@@H]1O[C@@H](O[C@H]2C[C@@H](O)[C@]3(CO)[C@H]4[C@H](O)C[C@]5(C)[C@@H](C6=CC(=O)OC6)CC[C@]5(O)[C@@H]4CC[C@]3(O)C2)[C@H](O)[C@H](O)[C@H]1O [OUABAIN]	Not Active	Not Active	Not Active	Not Active	Not Active	Not Active	Not Active	Not Active	Not Active				
NC(=O)N1c2ccccc2CC(=O)c2ccccc21 [OXCARBAZEPINE]	Not Active	Not Active	Not Active	Not Active	Not Active	Not Active	Not Active	Not Active	Not Active				
COc1ccnc(C[S+]([O-])c2nc3ccc(OC(F)F)cc3[nH]2)c1OC (configuration not stated) [PANTOPRAZOLE]	Not Active	Not Active	Not Active	Not Active	Not Active	Not Active	Not Active	Not Active	Not Active				
N=C(N)c1ccc(OCCCCCOc2ccc(C(=N)N)cc2)cc1 [PENTAMIDINE]	Not Active	Not Active	Not Active		Not Active	Not Active	Not Active			1380	516	3520	2350
NNCCc1ccccc1 [PHENELZINE]	Not Active	Not Active	Not Active	Not Active	Not Active	Not Active	Not Active	Not Active	Not Active				
CCc1ccc(CCOc2ccc(CC3SC(=O)NC3=O)cc2)nc1 (configuration not stated) [PIOGLITAZONE]	Not Active	Not Active	Not Active	Not Active	Not Active	Not Active	Not Active	Not Active	Not Active				
CCCNC(C)C(=O)Nc1ccccc1C (configuration not stated) [PRILOCAINE]	Not Active	Not Active	Not Active	Not Active	Not Active	Not Active	Not Active	Not Active	Not Active				
CCN(CC)CCNC(=O)c1ccc(N)cc1 [PROCAINAMIDE]	Not Active	Not Active	Not Active	Not Active	Not Active	Not Active	Not Active	Not Active	Not Active				
CCN(CC)CCCC(C)Nc1c2ccc(Cl)cc2nc2ccc(OC)cc12 (configuration not stated) [QUINACRINE]	Not Active	Not Active	Not Active		Not Active	Not Active	Not Active			2280	855	1520	1010
C[C@]12C=CC(=O)C=C1CC[C@H]1[C@@H]3C[C@@H](O)[C@](O)(C(=O)CO)[C@@]3(C)C[C@H](O)[C@@]12F [TRIAMCINOLONE]	Not Active	Not Active	Not Active	Not Active	Not Active	Not Active	Not Active	Not Active	Not Active				

— ChEMBL document CHEMBL1909046, “DrugMatrix in vitro pharmacology data”
